Assay results from patent US20100240652A1, “Pyridine Derivatives as Sodium Channel Modulators” (Pfizer Inc, priority 2006, published 2010).

Biological target: T1, Human NaV1.8 (Homo sapiens, UniProt Q9Y5Y9)
T1 construct: expressed in transfected cells
Assay: VIPR assay for NaV1.8 compounds (FRET membrane potential)
Format: cell-based
Conditions: Human NaV1.8 HEK293 expressing cell line, channels held open with deltamethrin
Text: The ability of the pyridine derivatives of the formula (I) to inhibit the NaV1.8 channel may be measured using the assay described below.
VIPR Assay for NaV1.8 compounds
This screen is used to determine the effects of compounds on tetrodotoxin-resistant (TTX-R) sodium channels in Human NaV1.8— (HEK293) expressing cell line, utilising the technology of Aurora's fluorescent Voltage/Ion Probe Reader (VIPR). This experiment is based on FRET (Fluorescence Resonance Energy Transfer) and uses two fluorescent molecules. The first molecule, Oxonol (DiSBAC2(3)), is a highly fluorescent, negatively charged, hydrophobic ion that “senses” the trans-membrane electrical potential. In response to changes in membrane potential, it can rapidly redistribute between two binding sites on opposite sides of the plasma membrane. The voltage dependent redistribution is transduced into a ratiometric fluorescent readout via a second fluorescent molecule (Coumarin (CC2-DMPE)) that binds specifically to one face of the plasma membrane and functions as a FRET partner to the mobile voltage-sensing ion. To enable the assay to work, the channels have to be pharmacologically held in the open state. This is achieved by treating the cells with either deltamethrin (for NaV1.8) or veratridine (for the SHSY-5Y assay for TTX-S channels).
Human NaV1.8 cells are grown in T225 flasks, in a 5% CO2 humidified incubator to about 70% confluence. Media composition consists of DMEM/F-12, 10% FCS and 300 μg/ml Geneticine. They are split using cell dissociation fluid 1:5 to 1:20, depending on scheduling needs, and grown for 3-4 days before the next split.
Plate-out HEK-NaV1.8 cells (100 μl per well) into poly-D-lysine coated plates prior to experimentation as follows:—24 hours @ 3.5×10^4 cells/well (3.5×10^5 cells/ml) or using the technology of Select.
1. Equilibrate buffers at room temperature for 2 hours or at 37° C. for 30 minutes prior to experimentation. 2. Prepare Coumarin dye (see below) and store in dark. Prime the plate washer with Na^+ Free buffer and wash cells twice, Note: Plate washer deposits ˜30 μl residual buffer per well. Add 100 μL Coumarin (CC2-DMPE) solution (see below) to cells and incubate for 45 minutes at room temperature avoiding bright light. 3. Prepare Oxonol (DiSBAC2(3)) dye (see below): 4. Aspirate off Coumarin solution from the cells by washing in Na^+ Free buffer. 5. Add 30 μl compound then add 30 μl Oxonol solution to the cells and incubate for 45 minutes at room temperature in the dark (total well volume ˜90 μl). 6. Once the incubation is complete, the cells are ready to be assayed using the VIPR for sodium addback membrane potential.
The data was analyzed and reported as normalised ratios of intensities measured in the 460 nm and 580 nm channels. The process of calculating these ratios was performed as follows. An additional plate contained control solution with the same DisBAC2(3) concentrations as used in the cell plates, however no cells were included in the background plate. Intensity values at each wavelength were averaged for sample points 5-7 (initial) and 44-49 (final). These averages were subtracted from intensity values averaged over the same time periods in all assay wells. The initial ratio obtained from samples 3-8 (Ri) and the final ratio obtained from samples 45-50 (Rf) are defined as: […]
Final data are normalised to the starting ratio of each well and reported as Rf/Ri. This analysis is performed using a computerised specific programme designed for VIPR generated data. Rf/Ri ratio values are plotted using Excel Labstats (curve fit) or analysed via ECADA to determine an IC50 value for each compound.

T1 sequence (Q9Y5Y9 whole entry): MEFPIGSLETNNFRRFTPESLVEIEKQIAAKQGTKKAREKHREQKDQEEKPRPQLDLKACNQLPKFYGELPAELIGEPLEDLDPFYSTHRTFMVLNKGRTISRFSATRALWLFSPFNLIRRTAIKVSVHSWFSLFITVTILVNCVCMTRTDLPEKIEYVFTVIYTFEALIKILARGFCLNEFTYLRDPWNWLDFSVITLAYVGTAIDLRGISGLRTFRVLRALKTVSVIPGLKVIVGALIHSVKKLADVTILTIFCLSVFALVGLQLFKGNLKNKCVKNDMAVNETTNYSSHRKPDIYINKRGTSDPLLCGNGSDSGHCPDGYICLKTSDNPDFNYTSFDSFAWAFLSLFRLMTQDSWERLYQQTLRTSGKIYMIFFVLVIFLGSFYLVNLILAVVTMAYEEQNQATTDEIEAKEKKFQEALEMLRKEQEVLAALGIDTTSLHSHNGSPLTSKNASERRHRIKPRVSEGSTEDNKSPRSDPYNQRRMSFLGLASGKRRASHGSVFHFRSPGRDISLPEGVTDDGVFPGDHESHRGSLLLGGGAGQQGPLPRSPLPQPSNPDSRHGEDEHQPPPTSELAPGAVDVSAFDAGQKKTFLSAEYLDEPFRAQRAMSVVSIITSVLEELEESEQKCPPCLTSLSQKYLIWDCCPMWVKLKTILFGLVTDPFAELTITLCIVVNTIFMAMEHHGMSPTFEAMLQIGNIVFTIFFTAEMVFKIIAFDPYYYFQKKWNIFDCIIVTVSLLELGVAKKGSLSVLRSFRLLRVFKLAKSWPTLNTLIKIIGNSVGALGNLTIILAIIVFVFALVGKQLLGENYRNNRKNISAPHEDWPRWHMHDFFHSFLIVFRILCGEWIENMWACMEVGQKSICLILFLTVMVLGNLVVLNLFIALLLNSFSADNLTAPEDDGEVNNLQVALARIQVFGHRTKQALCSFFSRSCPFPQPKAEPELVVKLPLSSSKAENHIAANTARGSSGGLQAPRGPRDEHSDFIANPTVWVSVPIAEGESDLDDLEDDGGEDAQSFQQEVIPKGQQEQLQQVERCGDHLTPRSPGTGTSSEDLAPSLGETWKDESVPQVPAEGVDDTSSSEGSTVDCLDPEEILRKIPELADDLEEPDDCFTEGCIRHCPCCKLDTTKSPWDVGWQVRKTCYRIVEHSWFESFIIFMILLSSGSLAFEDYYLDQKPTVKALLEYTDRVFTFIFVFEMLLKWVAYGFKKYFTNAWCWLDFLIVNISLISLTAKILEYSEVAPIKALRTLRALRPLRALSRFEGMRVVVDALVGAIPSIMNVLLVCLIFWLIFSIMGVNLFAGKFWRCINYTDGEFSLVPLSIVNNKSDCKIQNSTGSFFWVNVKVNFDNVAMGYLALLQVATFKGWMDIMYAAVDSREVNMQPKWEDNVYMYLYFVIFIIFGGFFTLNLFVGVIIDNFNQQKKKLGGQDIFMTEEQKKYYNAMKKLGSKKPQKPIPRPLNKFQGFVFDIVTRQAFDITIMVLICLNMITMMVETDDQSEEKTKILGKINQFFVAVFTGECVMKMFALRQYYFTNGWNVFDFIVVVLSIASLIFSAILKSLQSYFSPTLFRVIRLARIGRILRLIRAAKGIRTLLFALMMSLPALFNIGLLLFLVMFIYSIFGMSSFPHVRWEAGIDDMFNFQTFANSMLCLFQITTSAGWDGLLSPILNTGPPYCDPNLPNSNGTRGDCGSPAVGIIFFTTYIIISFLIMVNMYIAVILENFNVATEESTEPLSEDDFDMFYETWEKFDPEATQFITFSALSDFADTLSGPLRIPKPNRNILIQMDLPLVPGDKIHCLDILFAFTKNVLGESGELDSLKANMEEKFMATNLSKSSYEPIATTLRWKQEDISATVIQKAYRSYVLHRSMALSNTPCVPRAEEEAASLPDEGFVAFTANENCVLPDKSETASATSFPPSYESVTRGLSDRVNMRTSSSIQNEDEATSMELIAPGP

Row | SMILES | IC50
1 | CNC(=S)c1ccc(-c2cc(Cl)cc(Cl)c2Cl)c(N)n1 [Example 1, 6-Amino-5-(2,3,5-trichloro-phenyl)-pyridine-2-carbothioic acid methylamide] | 2930 nM
2 | C/N=C(\NC)c1ccc(-c2cc(Cl)cc(Cl)c2Cl)c(N)n1 [Example 3, 6-Amino-N,N′-dimethyl-5-(2,3,5-trichloro-phenyl)-pyridine-2-carboxamidine] | 1820 nM
3 | C/N=C(/c1ccc(-c2cc(Cl)cc(Cl)c2Cl)c(N)n1)N1CCOCC1 [Example 4, 6-(Methylimino-morpholin-4-yl-methyl)-3-(2,3,5-trichloro-phenyl)-pyridin-2-ylamine] | 4580 nM
4 | CC/N=C(\NCC)c1ccc(-c2cc(Cl)cc(Cl)c2Cl)c(N)n1 [Example 5, 6-Amino-N,N′-diethyl-5-(2,3,5-trichloro-phenyl)-pyridine-2-carboxamidine] | 2940 nM
5 | CNC(=N)c1ccc(-c2cc(Cl)cc(Cl)c2Cl)c(N)n1 [Example 7, 6-Amino-N-methyl-5-(2,3,5-trichloro-phenyl)-pyridine-2-carboxamidine] | 2400 nM

These reach a lower IC50. Values come first.

Row | IC50 | SMILES
6 | 1630 nM | CN/C(=N\C#N)c1ccc(-c2cc(Cl)cc(Cl)c2Cl)c(N)n1 [Example 2, 6-Amino-N′-cyano-N-methyl-5-(2,3,5-trichlorophenyl)pyridine-2-carboximidamide]
7 | 1330 nM | C/N=C(\NCC(F)(F)F)c1ccc(-c2cc(Cl)cc(Cl)c2Cl)c(N)n1 [Example 6, 6-Amino-N-methyl-5-(2,3,5-trichloro-phenyl)-N′-(2,2,2-trifluoro-ethyl)-pyridine-2-carboxamidine]
